This is an account of results in patent US5776935A, “Pyrido-phtalazin diones and their use against neurological disorders associated with excitotoxicity and malfunctioning of glutamatergic neurotransmission” (Merz & Co. GmbH & Co., priority 1996, dated 1998).

As a reminder, the IC50 is the concentration needed to halve the response being measured.

Molecules are shown by their SMILES. Read-outs that look alike come from different tables or passages of the source.

The target of assay [1] is T1, NMDA receptor (Rattus norvegicus, UniProt P35439).
T1 construct: endogenous in cells
Nature of the assay: Patch clamp, inward currents to NMDA in cultured superior colliculus neurones. In kind it is cell-based. The settings on record: for IC50 / IC50 against inward currents to NMDA: NMDA 200 μM; for voltage-dependence of effect: NMDA currents; for Kb: read-out: Kb (Cheng-Prusoff relationship).

In assay [2] the target is T2, strychnine-insensitive glycine site (glycineB) of the NMDA receptor (rat cortical membranes) (Rattus norvegicus, UniProt P35439).
T2 construct: The cortex was dissected and homogenised in 20 volumes of ice-cold 0.32M sucrose; from tissue; host or cells: brain cortex membranes of male Sprague-Dawley rats
The experiment in a line: [3H]glycine binding assay. The settings on record: 20 nM [3H]glycine, 100 μM strychnine. The protocol: Tissue preparation was performed according to Foster and Wong (1987). Male Sprague-Dawley rats (200-250g) were decapitated and their brains were removed rapidly. The cortex was dissected and homogenised in 20 volumes of ice-cold 0.32M sucrose using a glass-Teflon homogenizer. The homogenate was centrifuged at 1000×g for 10 min. The pellet was discarded and the supernatant centrifuged at 20,000×g for 20 min. The resulting pellet was resuspended in 20 volumes of distilled water and centrifuged for 20 min at 8000×g. Then the supernatant and the buffy coat were centrifuged three times (48,000× g for 20 min) in the presence of 5 mM Tris-HCl, pH 7.4. All centrifugation steps were carried out at 4° C. After resuspension in 5 volumes of 5 mM Tris-HCl, pH 7.4 the membrane suspension was frozen rapidly at -80° C. until the day of assay. On the day of assay the membranes were thawed and washed four times by resuspension in 5 mM Tris-HCl, pH 7.4 and centrifugation at 48,000× g for 20 min. The final pellet was suspended in assay buffer.
The amount of protein in the final membrane preparation was determined according to the method of Lowry (1951) with some modifications (Hartfree, 1972). 50 μl of Protein samples (in triplicates) were diluted to 1 ml with distilled water and treated with 0.9 ml of a solution containing 2 g potassium sodium tartrate and 10 g Na2 CO3 in 500 ml 1N NaOH and 500ml water. Blank and standard (with bovine serum albumin) were set up in the same way. The tubes were placed in a water bath at 50° C. for 10 min. and cooled at room temperature. 100 μl of a solution containing 2 g potassium sodium tartrate and 1 g CuSO4 x 5 H2 O in 90 ml water and 10 ml 1N NaOH were added. The samples were left at room temperature for at least 10 min., then 3 ml of Folin-Ciocalteu reagent (1 ml of reagent diluted with 15 ml water) was added rapidly during mixing. The tubes were again heated at 50° C. for 10 min. and cooled to room temperature. Absorbencies were then read in 1 cm cuvets at 650 nm. The final protein concentration used for our studies was between 100 and 250 μg/ml.
Incubation in both binding assays was terminated using a Millipore filter system. The samples, all in triplicate, were rinsed three times with 2.5 ml ice cold assay buffer over glass fibre filters obtained from Schleicher & Schuell under a constant vacuum. Following separation and rinse the filters were placed into scintillation liquid (5 ml; Ultima Gold) and radioactivity retained on the filters was determined by using conventional liquid scintillation counter (Hewlett Packard, Liquid Scintillation Analyser). `Total binding` was the absolute amount of radioligand bound in the absence of any additives whereas `non-specific` binding was determined in the presence of a high concentration of competitor.
[^3 H]glycine binding assay
[^3 H]glycine binding assays were performed according to the method described by Kessler and co-workers (1989). Rat cortical membranes were prepared as previously described and the final pellet was suspended in 50 mM Tris-acetate, pH 7.4. At least 5 different concentrations of test compounds were incubated with 2OnM [^3 H]glycine for 30 min at 4° C. in the presence of 100 μM strychnine. All compounds were dissolved in water or DMSO, respectively. Non-specific binding was determined by including 100 μM glycine in the incubation mixture. The incubation was terminated by diluting the samples with 2 ml of stop solution (50 mM Tris-HCl including 10 mM magnesium sulphate, pH 7.4, cooled to <2° C.) followed by a further rinse with 2.5 ml buffer. Filtration was performed as rapidly as possible.

[3] abbreviates: glycine 1 μM, peak currents, read-out: Peak NMDA IC50.
The mark [4] stands for this setting: glycine 1 μM, plateau (steady-state) currents, read-out: Plateau NMDA IC50.

Turning to `O=c1[nH]nc(O)c2c1cc1cc(F)ccc1[n+]2[O-]` [Mrz 2/516, 8-fluoro-4-hydroxy-1-oxo-1,2-dihydropyridazino[4,5-b]-quinoline 5-oxide], the concentration for half-maximal inhibition (IC50) in assay [1] (setting [3]) was 6300 nM; in assay [1] (setting [4]), 1600 nM; in assay [2], 17 nM.

For the compound `O=c1[nH]nc(O)c2c1cc1cc(Cl)ccc1[n+]2[O-]` [Mrz 2/502, 8-chloro-4-hydroxy-1-oxo-1,2-dihydropyridazino[4,5-b]-quinoline 5-oxide], the “IC50 against inward currents to NMDA” value in assay [1] was “most potent”. Besides, the IC50 in assay [1] (setting [3]) worked out at 800 nM; in assay [1] (setting [4]), 300 nM; in assay [2], 13 nM. The voltage-dependence of effect entry in assay [1] is on record as “not voltage-dependent”. In addition, the results for the Kb in assay [1] (glycine 1 μM), in assay [1] (glycine 3 μM) and in assay [1] (glycine 10 μM) were 80 nM, 124 nM and 118 nM, respectively.

Turning to `O=c1[nH][nH]c(=O)c2nc3ccc(F)cc3cc12` [Mrz 2/519], the IC50 in assay [1] (setting [3]) stood at 18000 nM; in assay [1] (setting [4]), 5800 nM; in assay [2], 15 nM.

On to `O=c1[nH]nc(O)c2c1cc1cc(Br)ccc1[n+]2[O-]` [Mrz 2/514, 8-bromo-4-hydroxy-1-oxo-1,2-dihydropyridazino[4,5-b]-quinoline 5-oxide], for which the “IC50 against inward currents to NMDA” value in assay [1] is listed as “most potent”. In addition, the IC50 in assay [1] (setting [3]) amounted to 500 nM; in assay [1] (setting [4]), 200 nM; in assay [2] it was 4 nM.

For `O=c1[nH][nH]c(=O)c2nc3cc(Cl)c(Cl)cc3cc12` [Mrz 2/515], the IC50 in assay [1] (setting [3]) was determined as 3700 nM; in assay [1] (setting [4]), 900 nM.

With `O=c1[nH][nH]c(=O)c2nc3ccc(Cl)cc3cc12` [Mrz 2/501], the IC50 in assay [1] (setting [3]) was 2300 nM; in assay [1] (setting [4]), 700 nM; in assay [2], 80 nM. The voltage-dependence of effect result in assay [1] is listed as “not voltage-dependent”.

As for `O=c1[nH][nH]c(=O)c2nc3ccc(Br)cc3cc12` [Mrz 2/503], the IC50 was 1700 nM in assay [1] (setting [3]), 600 nM in assay [1] (setting [4]) and 13 nM in assay [2].
